Tests used:
[1] = molecular target: AAK1 (human) (UniProt Q2M2I8); assay: KINOMEscan competition binding; conditions: compound 10.0 µM
[2] = molecular target: BMP2K (human) (UniProt Q9NSY1); assay: KINOMEscan competition binding; conditions: compound 10.0 µM
[3] = molecular target: CLK2 (human) (UniProt P49760); assay: KINOMEscan competition binding; conditions: compound 10.0 µM
[4] = molecular target: MYLK4 (human) (UniProt Q86YV6); assay: KINOMEscan competition binding; conditions: compound 10.0 µM
Sequence of MYLK4 (human) (Q86YV6 whole entry, looked up): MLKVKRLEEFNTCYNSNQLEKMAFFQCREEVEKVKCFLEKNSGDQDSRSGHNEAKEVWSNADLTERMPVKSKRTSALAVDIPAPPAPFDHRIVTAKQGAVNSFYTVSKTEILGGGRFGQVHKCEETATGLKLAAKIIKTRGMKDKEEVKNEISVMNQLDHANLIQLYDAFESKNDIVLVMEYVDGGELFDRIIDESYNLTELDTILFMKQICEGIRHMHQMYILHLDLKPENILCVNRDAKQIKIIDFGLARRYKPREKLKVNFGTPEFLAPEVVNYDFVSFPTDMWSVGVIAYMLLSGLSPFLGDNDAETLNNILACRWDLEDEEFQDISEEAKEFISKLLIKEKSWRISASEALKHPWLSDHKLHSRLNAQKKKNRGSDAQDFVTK

[5] = molecular target: PIM3 (human) (UniProt Q86V86); assay: KINOMEscan competition binding; conditions: compound 10.0 µM
[6] = molecular target: RIOK1 (human) (UniProt Q9BRS2); assay: KINOMEscan competition binding; conditions: compound 10.0 µM
[7] = molecular target: RIOK3 (human) (UniProt O14730); assay: KINOMEscan competition binding; conditions: compound 10.0 µM
[8] = molecular target: SRPK1 (human) (UniProt Q96SB4); assay: KINOMEscan competition binding; conditions: compound 10.0 µM
[9] = molecular target: SRPK3 (human) (UniProt Q9UPE1); assay: KINOMEscan competition binding; conditions: compound 10.0 µM
[10] = molecular target: STK17A (human) (UniProt Q9UEE5); assay: KINOMEscan competition binding; conditions: compound 10.0 µM
[11] = molecular target: TYK2 JH2 pseudokinase (human) (UniProt P29597); assay: KINOMEscan competition binding; conditions: compound 10.0 µM
[12] = test system: ABL1 (human), P00519 [F317I]; assay: KINOMEscan competition binding; conditions: compound 10.0 µM
[13] = molecular target: ALK (human) (UniProt Q9UM73); assay: KINOMEscan competition binding; conditions: compound 10.0 µM
[14] = molecular target: DCLK1 (human) (UniProt O15075); assay: KINOMEscan competition binding; conditions: compound 10.0 µM
Sequence of DCLK1 (human) (O15075 whole entry, looked up): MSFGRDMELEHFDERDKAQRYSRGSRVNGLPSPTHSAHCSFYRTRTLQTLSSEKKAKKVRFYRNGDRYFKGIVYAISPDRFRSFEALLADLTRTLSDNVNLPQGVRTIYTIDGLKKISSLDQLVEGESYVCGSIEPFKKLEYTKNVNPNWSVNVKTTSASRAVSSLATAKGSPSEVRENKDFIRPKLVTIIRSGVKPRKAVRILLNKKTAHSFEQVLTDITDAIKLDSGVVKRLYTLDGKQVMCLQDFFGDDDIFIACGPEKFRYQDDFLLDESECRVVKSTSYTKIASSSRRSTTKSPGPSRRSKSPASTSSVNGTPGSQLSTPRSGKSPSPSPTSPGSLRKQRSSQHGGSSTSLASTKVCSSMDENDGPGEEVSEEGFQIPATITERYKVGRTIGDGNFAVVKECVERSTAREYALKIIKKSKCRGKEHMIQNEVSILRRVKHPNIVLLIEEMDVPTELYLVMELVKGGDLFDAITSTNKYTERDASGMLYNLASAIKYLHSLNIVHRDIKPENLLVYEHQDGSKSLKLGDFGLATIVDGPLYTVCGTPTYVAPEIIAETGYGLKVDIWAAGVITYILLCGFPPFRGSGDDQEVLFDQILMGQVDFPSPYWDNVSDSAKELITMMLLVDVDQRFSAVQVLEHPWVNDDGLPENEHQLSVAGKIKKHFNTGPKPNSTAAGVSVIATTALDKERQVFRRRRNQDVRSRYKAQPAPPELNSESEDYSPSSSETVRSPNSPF

[15] = molecular target: DCLK2 (human) (UniProt Q8N568); assay: KINOMEscan competition binding; conditions: compound 10.0 µM
Sequence of DCLK2 (human) (Q8N568 whole entry, looked up): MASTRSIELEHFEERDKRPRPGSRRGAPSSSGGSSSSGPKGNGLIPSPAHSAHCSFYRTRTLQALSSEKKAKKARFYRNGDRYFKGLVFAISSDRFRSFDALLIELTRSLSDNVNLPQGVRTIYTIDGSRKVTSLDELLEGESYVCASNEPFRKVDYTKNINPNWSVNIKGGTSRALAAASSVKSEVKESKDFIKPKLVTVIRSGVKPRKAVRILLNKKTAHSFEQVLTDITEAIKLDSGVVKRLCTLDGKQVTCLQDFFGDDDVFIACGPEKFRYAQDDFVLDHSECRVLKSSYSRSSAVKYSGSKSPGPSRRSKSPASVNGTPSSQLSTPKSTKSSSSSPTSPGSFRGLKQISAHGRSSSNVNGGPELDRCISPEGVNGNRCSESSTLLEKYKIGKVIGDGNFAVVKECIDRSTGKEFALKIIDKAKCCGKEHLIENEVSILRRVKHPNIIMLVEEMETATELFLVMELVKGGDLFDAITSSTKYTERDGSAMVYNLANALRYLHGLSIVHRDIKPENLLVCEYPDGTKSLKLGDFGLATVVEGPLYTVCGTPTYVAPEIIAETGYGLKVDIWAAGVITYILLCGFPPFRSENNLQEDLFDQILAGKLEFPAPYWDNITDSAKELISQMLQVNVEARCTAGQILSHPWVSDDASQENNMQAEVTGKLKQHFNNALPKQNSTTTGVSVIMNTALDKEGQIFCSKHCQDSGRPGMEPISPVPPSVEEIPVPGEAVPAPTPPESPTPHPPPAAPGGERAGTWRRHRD

[16] = molecular target: FRK (human) (UniProt P42685); assay: KINOMEscan competition binding; conditions: compound 10.0 µM
[17] = molecular target: MAPK7 (human) (UniProt Q13164); assay: KINOMEscan competition binding; conditions: compound 10.0 µM
[18] = molecular target: PLK1 (human) (UniProt P53350); assay: KINOMEscan competition binding; conditions: compound 10.0 µM
Sequence of PLK1 (human) (P53350 whole entry, looked up): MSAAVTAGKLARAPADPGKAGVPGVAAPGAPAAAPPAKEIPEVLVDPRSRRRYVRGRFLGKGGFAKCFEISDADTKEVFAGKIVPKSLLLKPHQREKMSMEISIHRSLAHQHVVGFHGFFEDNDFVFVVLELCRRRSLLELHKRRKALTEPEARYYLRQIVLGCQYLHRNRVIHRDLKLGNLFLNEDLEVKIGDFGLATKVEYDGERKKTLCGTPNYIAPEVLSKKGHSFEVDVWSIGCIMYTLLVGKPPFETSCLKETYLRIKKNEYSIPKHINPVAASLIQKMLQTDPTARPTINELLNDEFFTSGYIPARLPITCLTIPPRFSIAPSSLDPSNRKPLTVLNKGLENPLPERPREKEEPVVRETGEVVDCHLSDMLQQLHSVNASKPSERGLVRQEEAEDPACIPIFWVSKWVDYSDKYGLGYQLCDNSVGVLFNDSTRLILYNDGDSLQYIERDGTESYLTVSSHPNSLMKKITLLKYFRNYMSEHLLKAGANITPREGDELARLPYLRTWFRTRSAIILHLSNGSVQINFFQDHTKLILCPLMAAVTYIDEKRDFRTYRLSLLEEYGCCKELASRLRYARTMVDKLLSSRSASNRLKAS

[19] = molecular target: PLK4 (human) (UniProt O00444); assay: KINOMEscan competition binding; conditions: compound 10.0 µM
Sequence of PLK4 (human) (O00444 whole entry, looked up): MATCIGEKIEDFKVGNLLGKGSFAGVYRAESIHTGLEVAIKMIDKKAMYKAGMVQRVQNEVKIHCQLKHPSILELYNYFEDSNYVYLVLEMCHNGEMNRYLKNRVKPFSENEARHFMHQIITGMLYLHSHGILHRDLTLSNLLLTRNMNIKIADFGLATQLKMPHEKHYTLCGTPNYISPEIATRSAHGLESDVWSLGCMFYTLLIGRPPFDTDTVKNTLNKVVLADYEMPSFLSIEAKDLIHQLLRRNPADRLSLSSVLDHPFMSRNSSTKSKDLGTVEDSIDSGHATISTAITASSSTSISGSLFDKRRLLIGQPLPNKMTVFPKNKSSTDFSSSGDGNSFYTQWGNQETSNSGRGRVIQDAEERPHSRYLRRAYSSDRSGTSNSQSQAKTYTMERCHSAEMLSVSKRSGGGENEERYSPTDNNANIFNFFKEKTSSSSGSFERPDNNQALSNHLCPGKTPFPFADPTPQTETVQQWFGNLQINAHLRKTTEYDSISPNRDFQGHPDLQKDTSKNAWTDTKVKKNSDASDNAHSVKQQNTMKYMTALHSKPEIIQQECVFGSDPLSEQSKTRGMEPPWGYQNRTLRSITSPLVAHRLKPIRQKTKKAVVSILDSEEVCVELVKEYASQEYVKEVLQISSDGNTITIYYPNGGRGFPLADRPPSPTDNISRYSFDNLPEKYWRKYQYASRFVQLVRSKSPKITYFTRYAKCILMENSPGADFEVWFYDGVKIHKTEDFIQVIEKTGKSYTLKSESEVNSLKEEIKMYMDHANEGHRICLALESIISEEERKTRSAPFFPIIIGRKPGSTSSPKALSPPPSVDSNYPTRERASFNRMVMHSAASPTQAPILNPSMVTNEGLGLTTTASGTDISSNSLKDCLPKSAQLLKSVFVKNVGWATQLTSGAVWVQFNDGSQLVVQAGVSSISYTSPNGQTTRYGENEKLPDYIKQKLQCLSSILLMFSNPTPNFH

[20] = molecular target: PTK2 (human) (UniProt Q05397); assay: KINOMEscan competition binding; conditions: compound 10.0 µM
[21] = molecular target: ROS1 (human) (UniProt P08922); assay: KINOMEscan competition binding; conditions: compound 10.0 µM
[22] = molecular target: TNK1 (human) (UniProt Q13470); assay: KINOMEscan competition binding; conditions: compound 10.0 µM
[23] = molecular target: TNK2 (human) (UniProt Q07912); assay: KINOMEscan competition binding; conditions: compound 10.0 µM
[24] = molecular target: TTK (human) (UniProt P33981); assay: KINOMEscan competition binding; conditions: for kinase still bound, per cent of control: compound 10.0 µM
Sequence of TTK (human) (P33981 whole entry, looked up): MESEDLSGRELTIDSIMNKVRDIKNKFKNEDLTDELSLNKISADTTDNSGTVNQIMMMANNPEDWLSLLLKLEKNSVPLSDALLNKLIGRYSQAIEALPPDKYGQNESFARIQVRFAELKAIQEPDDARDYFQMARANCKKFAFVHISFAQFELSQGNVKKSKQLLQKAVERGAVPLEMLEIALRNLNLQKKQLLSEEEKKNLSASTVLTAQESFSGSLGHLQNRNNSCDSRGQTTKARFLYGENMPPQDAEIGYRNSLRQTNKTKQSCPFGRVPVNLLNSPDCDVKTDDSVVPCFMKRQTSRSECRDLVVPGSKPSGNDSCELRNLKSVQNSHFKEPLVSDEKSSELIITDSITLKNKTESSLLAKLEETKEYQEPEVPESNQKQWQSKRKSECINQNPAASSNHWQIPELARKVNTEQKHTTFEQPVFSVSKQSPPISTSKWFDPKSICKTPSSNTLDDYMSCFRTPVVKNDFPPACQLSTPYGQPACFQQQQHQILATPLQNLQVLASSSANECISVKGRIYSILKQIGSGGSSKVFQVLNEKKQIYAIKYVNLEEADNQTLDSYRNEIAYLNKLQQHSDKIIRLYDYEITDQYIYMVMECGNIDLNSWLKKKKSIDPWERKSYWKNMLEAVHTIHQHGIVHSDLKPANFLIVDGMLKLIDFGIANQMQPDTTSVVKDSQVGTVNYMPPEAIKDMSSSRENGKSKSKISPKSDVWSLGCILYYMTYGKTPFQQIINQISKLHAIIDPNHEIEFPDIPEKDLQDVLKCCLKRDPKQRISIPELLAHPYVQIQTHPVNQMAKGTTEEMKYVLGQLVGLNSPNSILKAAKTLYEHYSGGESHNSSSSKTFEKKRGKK

[25] = molecular target: ULK2 (human) (UniProt Q8IYT8); assay: KINOMEscan competition binding; conditions: compound 10.0 µM
[26] = molecular target: FLT3 (human) (UniProt P36888); assay: KINOMEscan competition binding; conditions: compound 10.0 µM
[27] = test system: FLT3 (human), P36888 [K663Q]; assay: KINOMEscan competition binding; conditions: compound 10.0 µM
[28] = molecular target: GAK (human) (UniProt O14976); assay: KINOMEscan competition binding; conditions: compound 10.0 µM
[29] = molecular target: KIT (human) (UniProt P10721); assay: KINOMEscan competition binding; conditions: compound 10.0 µM
[30] = test system: KIT (human), P10721 [V559D]; assay: KINOMEscan competition binding; conditions: compound 10.0 µM
[31] = molecular target: PDGFRB (human) (UniProt P09619); assay: KINOMEscan competition binding; conditions: compound 10.0 µM
[32] = molecular target: RPS6KA2 KD2 (human) (UniProt Q15349); assay: KINOMEscan competition binding; conditions: compound 10.0 µM
[33] = molecular target: STK33 (human) (UniProt Q9BYT3); assay: KINOMEscan competition binding; conditions: compound 10.0 µM
Sequence of STK33 (human) (Q9BYT3 whole entry, looked up): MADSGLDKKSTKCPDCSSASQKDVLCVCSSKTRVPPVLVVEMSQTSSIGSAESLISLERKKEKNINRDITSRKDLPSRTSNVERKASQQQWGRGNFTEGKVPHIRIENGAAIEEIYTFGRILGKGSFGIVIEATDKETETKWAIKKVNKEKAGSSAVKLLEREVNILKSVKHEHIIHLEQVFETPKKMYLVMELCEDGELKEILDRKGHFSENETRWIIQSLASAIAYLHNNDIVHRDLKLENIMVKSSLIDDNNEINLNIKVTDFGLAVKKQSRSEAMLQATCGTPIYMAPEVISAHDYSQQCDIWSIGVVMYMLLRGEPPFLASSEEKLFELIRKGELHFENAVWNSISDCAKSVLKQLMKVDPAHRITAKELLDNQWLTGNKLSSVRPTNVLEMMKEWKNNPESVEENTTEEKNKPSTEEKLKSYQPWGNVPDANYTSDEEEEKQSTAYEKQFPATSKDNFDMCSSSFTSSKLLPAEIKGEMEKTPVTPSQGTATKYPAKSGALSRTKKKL

[34] = molecular target: TTK (human) (UniProt P33981); assay: SelectScreen, TR FRET
[35] = molecular target: CAMK2A (human) (UniProt Q9UQM7); assay: KINOMEscan competition binding; conditions: compound 10.0 µM
[36] = molecular target: CAMK2D (human) (UniProt Q13557); assay: KINOMEscan competition binding; conditions: compound 10.0 µM
[37] = molecular target: CAMK2G (human) (UniProt Q13555); assay: KINOMEscan competition binding; conditions: compound 10.0 µM
[38] = molecular target: MKNK2 (human) (UniProt Q9HBH9); assay: KINOMEscan competition binding; conditions: compound 10.0 µM
[39] = molecular target: MYLK (human) (UniProt Q15746); assay: KINOMEscan competition binding; conditions: compound 10.0 µM
[40] = molecular target: PTK2B (human) (UniProt Q14289); assay: KINOMEscan competition binding; conditions: compound 10.0 µM
[41] = molecular target: MAP2K3 (human) (UniProt P46734); assay: KINOMEscan competition binding; conditions: compound 10.0 µM
[42] = molecular target: MAP2K4 (human) (UniProt P45985); assay: KINOMEscan competition binding; conditions: compound 10.0 µM
[43] = molecular target: CAMKK2 (human) (UniProt Q96RR4); assay: KINOMEscan competition binding; conditions: compound 10.0 µM
[44] = test system: PIK3CA (human), P42336 [E545K]; assay: KINOMEscan competition binding; conditions: compound 10.0 µM
[45] = molecular target: PIM1 (human) (UniProt P11309); assay: SelectScreen, TR FRET
[46] = molecular target: PIM2 (human) (UniProt Q9P1W9); assay: SelectScreen, TR FRET
[47] = molecular target: PLK3 (human) (UniProt Q9H4B4); assay: KINOMEscan competition binding; conditions: compound 10.0 µM

NS(=O)(=O)c1ccc(-c2ccc(/C=C3\C(=O)Nc4ccccc43)o2)cc1
kinase still bound, per cent of control [1]: 23%
kinase still bound, per cent of control [2]: 7.7%
kinase still bound, per cent of control [3]: 25%
kinase still bound, per cent of control [4]: 3.1%
kinase still bound, per cent of control [5]: 28%
kinase still bound, per cent of control [6]: 11%
kinase still bound, per cent of control [7]: 6.2%
kinase still bound, per cent of control [8]: 12%
kinase still bound, per cent of control [9]: 26%
kinase still bound, per cent of control [10]: 12%
kinase still bound, per cent of control [11]: 24%

COc1cc(N2CCN(C)CC2)ccc1Nc1ncc2c(n1)N(C(C)C)c1ccccc1C(=O)N2C
kinase still bound, per cent of control [12]: 22%
kinase still bound, per cent of control [13]: 14%
kinase still bound, per cent of control [14]: 1.2%
kinase still bound, per cent of control [15]: 1.2%
kinase still bound, per cent of control [16]: 31%
kinase still bound, per cent of control [17]: 0%
kinase still bound, per cent of control [18]: 25%
kinase still bound, per cent of control [19]: 0.15%
kinase still bound, per cent of control [20]: 18%
kinase still bound, per cent of control [21]: 9.2%
kinase still bound, per cent of control [22]: 3.8%
kinase still bound, per cent of control [23]: 27%
kinase still bound, per cent of control [24]: 8%
kinase still bound, per cent of control [25]: 25%

CCN1C(=O)CCN(C2CCCC2)c2nc(Nc3ccc(N4CCC(O)CC4)cn3)ncc21
kinase still bound, per cent of control [3]: 33%
kinase still bound, per cent of control [14]: 8.2%
kinase still bound, per cent of control [15]: 30%
kinase still bound, per cent of control [26]: 31%
kinase still bound, per cent of control [27]: 27%
kinase still bound, per cent of control [28]: 16%
kinase still bound, per cent of control [29]: 33%
kinase still bound, per cent of control [30]: 31%
kinase still bound, per cent of control [31]: 11%
kinase still bound, per cent of control [18]: 1.8%
kinase still bound, per cent of control [19]: 24%
kinase still bound, per cent of control [32]: 32%
kinase still bound, per cent of control [33]: 23%
Kd [24]: 582 nM
kinase still bound, per cent of control [24]: 2%
IC50 [34]: 3450 nM

CC[C@@H]1C(=O)N(C)c2cnc(Nc3ccc(N(C)CCO)cc3OC)nc2N1C1CCCC1
Kd [24]: 4700 nM
IC50 [34]: > 10000 nM

CCN1C(=O)CC(c2ccccc2)N(C2CCCC2)c2nc(Nc3ccc(C(=O)NC4CCN(C)CC4)cc3OC)ncc21 (stereo unspecified)
kinase still bound, per cent of control [35]: 20%
kinase still bound, per cent of control [36]: 30%
kinase still bound, per cent of control [37]: 26%
kinase still bound, per cent of control [14]: 23%
kinase still bound, per cent of control [38]: 33%
kinase still bound, per cent of control [39]: 26%
kinase still bound, per cent of control [18]: 0.55%
kinase still bound, per cent of control [33]: 20%

CCN1C(=O)CC(C(C)C)N(C2CCCC2)c2nc(Nc3ccc(C(=O)NC4CCN(C)CC4)cc3OC)ncc21 (stereo unspecified)
kinase still bound, per cent of control [35]: 9.3%
kinase still bound, per cent of control [36]: 23%
kinase still bound, per cent of control [37]: 16%
kinase still bound, per cent of control [14]: 0.9%
kinase still bound, per cent of control [15]: 1.6%
kinase still bound, per cent of control [40]: 34%
kinase still bound, per cent of control [33]: 31%

O=C1NC(=O)C(=Cc2ccc(-c3ccc(Cl)cc3)o2)C(=O)N1
kinase still bound, per cent of control [41]: 15%
kinase still bound, per cent of control [42]: 14%

CS(=O)(=O)Nc1ccc(-c2ccc(C=C3C(=O)NC(=O)NC3=O)o2)cc1
kinase still bound, per cent of control [43]: 34%
kinase still bound, per cent of control [44]: 20%

CC[C@@H]1C(=O)N(C)c2cnc(Nc3ccc(N4CCC(O)CC4)cc3OC)nc2N1C1CCCC1
Kd [24]: 1410 nM
IC50 [34]: > 10000 nM

O=C1NC(=S)S/C1=C\c1ccc(-c2cccc3cc[nH]c23)o1
IC50 [45]: 905 nM
IC50 [46]: 509 nM
IC50 [34]: 145 nM

CC[C@@H]1C(=O)N(C)c2cnc(Nc3ccc(N(C)CCCO)cc3OC)nc2N1C1CCCC1
Kd [24]: 3100 nM
IC50 [34]: > 10000 nM

CCOc1cc(N2CCC(O)CC2)ccc1Nc1ncc2c(n1)N(C1CCCC1)CCC(=O)N2
Kd [24]: 650 nM
IC50 [34]: 7450 nM

NS(=O)(=O)c1ccc(-c2ccc(/C=C3\C(=O)Nc4cccc(Br)c43)o2)cc1
kinase still bound, per cent of control [2]: 34%
kinase still bound, per cent of control [38]: 34%
kinase still bound, per cent of control [4]: 1.8%
kinase still bound, per cent of control [6]: 15%
kinase still bound, per cent of control [7]: 17%
kinase still bound, per cent of control [8]: 16%
kinase still bound, per cent of control [24]: 28%

CCN1C(=O)CCN(C2CCCC2)c2nc(Nc3ccc(N4CCC(O)CC4)cc3OC(C)C)ncc21
kinase still bound, per cent of control [18]: 4.1%
kinase still bound, per cent of control [32]: 12%
Kd [24]: 253 nM
kinase still bound, per cent of control [24]: 1.9%
IC50 [34]: 1090 nM

CC[C@@H]1C(=O)N(C)c2cnc(Nc3ccc(N4CCCC(O)C4)cc3OC)nc2N1C1CCCC1 (stereo partly specified)
Kd [24]: 2650 nM
IC50 [34]: > 10000 nM

COc1cc(N(C)CCCO)ccc1Nc1ncc2c(n1)N(C1CCCC1)CCC(=O)N2C
kinase still bound, per cent of control [28]: 1.9%
kinase still bound, per cent of control [18]: 1.7%
kinase still bound, per cent of control [47]: 0%
kinase still bound, per cent of control [19]: 12%
kinase still bound, per cent of control [20]: 16%
kinase still bound, per cent of control [40]: 29%
kinase still bound, per cent of control [33]: 11%
kinase still bound, per cent of control [22]: 31%
Kd [24]: 58.8 nM
kinase still bound, per cent of control [24]: 2.6%
IC50 [34]: 640 nM
